Source: patent US6509344B1, “Indenoisoquinolines as antineoplastic agents” (The United States of America as represented by the …, priority 1998, dated 2003)

How the values were obtained:
[1] = target: T1, topoisomerase I cleavage complexes (Homo sapiens, UniProt P11387); assay: Salt reversal of topoisomerase I cleavage complexes; assay type: biochemical; conditions: increasing salt concentration
T1 sequence (P11387 1-765): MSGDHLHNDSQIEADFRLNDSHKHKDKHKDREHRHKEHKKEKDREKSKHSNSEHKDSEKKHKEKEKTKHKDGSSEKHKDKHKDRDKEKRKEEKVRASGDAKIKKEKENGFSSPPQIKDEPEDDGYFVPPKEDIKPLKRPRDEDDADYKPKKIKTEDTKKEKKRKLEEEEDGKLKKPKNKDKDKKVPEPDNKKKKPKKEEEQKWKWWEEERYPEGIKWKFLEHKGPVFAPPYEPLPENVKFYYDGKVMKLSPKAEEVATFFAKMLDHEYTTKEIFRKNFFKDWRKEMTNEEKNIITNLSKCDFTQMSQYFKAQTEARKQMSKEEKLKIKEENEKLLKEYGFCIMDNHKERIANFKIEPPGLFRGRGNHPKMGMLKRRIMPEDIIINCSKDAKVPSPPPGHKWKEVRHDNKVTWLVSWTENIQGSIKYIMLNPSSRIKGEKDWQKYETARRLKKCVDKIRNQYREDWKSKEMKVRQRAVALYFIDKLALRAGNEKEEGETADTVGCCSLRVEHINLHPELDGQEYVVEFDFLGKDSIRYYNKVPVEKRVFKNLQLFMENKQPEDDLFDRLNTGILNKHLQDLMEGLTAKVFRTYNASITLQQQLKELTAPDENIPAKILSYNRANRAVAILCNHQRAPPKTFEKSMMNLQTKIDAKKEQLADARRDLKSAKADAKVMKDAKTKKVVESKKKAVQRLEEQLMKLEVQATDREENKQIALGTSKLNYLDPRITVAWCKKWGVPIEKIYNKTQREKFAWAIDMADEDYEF

HCT-116 = assay: NCI human cancer cell line screen (COMPARE screening), Colon HCT-116; assay type: cell-based; conditions: Homo sapiens; HCT-116; concentration causing 50% growth inhibition; read-out: Cytotoxicity (G150 in μM) Colon HCT-116
Method in brief: (§1)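 In the NCI COMPARE in vitro screen, compounds were assessed for antiproliferative effect; about 55 cancer lines from varied tissues were included per compound.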

human topoisomerase II = assay: Topoisomerase II-mediated DNA cleavage assay (5'-end-labeled human c-myc DNA); assay type: biochemical
MDA-MB-435 = assay: NCI human cancer cell line screen (COMPARE screening), Breast MDA-MB-435; assay type: cell-based; conditions: Homo sapiens; MDA-MB-435; concentration causing 50% growth inhibition; read-out: Cytotoxicity (G150 in μM) Breast MDA-MB-435
Method in brief: as §1

DU-145 = assay: NCI human cancer cell line screen (COMPARE screening), Prostate DU-145; assay type: cell-based; conditions: Homo sapiens; DU-145; concentration causing 50% growth inhibition; read-out: Cytotoxicity (G150 in μM) Prostate DU-145
Method in brief: as §1

HOP-62 = assay: NCI human cancer cell line screen (COMPARE screening), Lung HOP-62; assay type: cell-based; conditions: Homo sapiens; HOP-62; concentration causing 50% growth inhibition; read-out: Cytotoxicity (G150 in μM) Lung HOP-62
Method in brief: as §1

[2] = system: approximately 55 different cancer cell lines of diverse tumor origins; assay: NCI screen mean graph midpoint over all cell lines tested; assay type: cell-based, human
supercoiled SV40 DNA = assay: SV40 DNA unwinding assay; assay type: biochemical; conditions: supercoiled DNA in the presence of topoisomerase I
Description: With some of the compounds (e.g. 27), the activity seemed to increase initially as the concentration was increased, but then it declined at higher concentrations. […] The unwinding assay using supercoiled DNA in the presence of topoisomerase I is a simple procedure to detect DNA intercalation.
After electrophoresis, DNA bands were stained in 10 μg/mL of ethidium bromide and visualized by transillumination with UV light (300 nm).

UACC-62 = assay: NCI human cancer cell line screen (COMPARE screening), Melanoma UACC-62; assay type: cell-based; conditions: Homo sapiens; UACC-62; concentration causing 50% growth inhibition; read-out: Cytotoxicity (G150 in μM) Melanoma UACC-62
Method in brief: as §1

topoisomerase I = target: T2, topoisomerase I (Homo sapiens, UniProt P11387); assay: Topoisomerase I-mediated DNA cleavage assay (3'-end-labeled 161 bp pBluescript SK(-) fragment); assay type: biochemical
T2 sequence (P11387 1-765): T1 sequence (P11387 1-765)
Method in brief: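 A 3′-end ³²P-labeled 161 bp Pvu II/Hind III pBluescript SK(−) fragment was incubated with topoisomerase I and drug for 15 min at 30° C, then stopped with 0.5% SDS. Cleavage products were resolved on a denaturing 16% polyacrylamide/7 M urea gel at 51° C and read by phosphorimaging.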

OVCAR-3 = assay: NCI human cancer cell line screen (COMPARE screening), Ovarian OVCAR-3; assay type: cell-based; conditions: Homo sapiens; OVCAR-3; concentration causing 50% growth inhibition; read-out: Cytotoxicity (G150 in μM) Ovarian OVCAR-3
Method in brief: as §1

reversal of induced cleavage sites by salt treatment [1]: reversed by salt treatment | induction of topoisomerase II cleavage complexes (human topoisomerase II): no effect | activity in the topoisomerase I cleavage assay (in words) (topoisomerase I): rival the topoisomerase activity of 1 | melting point: 304 to 308 °C
Structure (SMILES): COc1cc2c3c(n(CCCCO)c(=O)c2cc1OC)-c1cc2c(cc1C3=O)OCO2 [Compound 19a, 5,6-Dihydro-5,11-diketo-6-(4-hydroxybut-1-yl)-2,3-dimethoxy-8,9-methylenedioxy-(11H)indeno[1,2-c]isoquinoline]
IC50 (HCT-116): 1.4 µM | IC50 (MDA-MB-435): 10 µM | IC50 (DU-145): 0.36 µM | IC50 (HOP-62): 0.7 µM | IC50 ([2]; Homo sapiens, average GI50 for all cell lines tested (approximately 55), values outside test range taken as 10^-8 or 10^-4 molar, read-out: MGM (mean graph midpoint)): 3200 nM | cytotoxicity (MGM) relative to lead compound 1 ([2]; comparison in words): lower MGM than the lead compound 1 | DNA unwinding (supercoiled SV40 DNA): does not appear to unwind DNA | IC50 (UACC-62): 0.99 µM | Top 1 Cleavage (topoisomerase I; relative to the activity of 1 μM camptothecin): + (those compounds having between 20% and 50% of the activity of 1 μM camptothecin) | IC50 (OVCAR-3): 3.7 µM
